Test results taken from publication PMC5061434, “Bacterial Expression, Purification and In Vitro Phosphorylation of Full-Length Ribosomal S6 Kinase 2 (RSK2)” (PLoS ONE, 2016).

Key:
[1] = target: T1, Ribosomal S6 kinase 2 (RSK2) (Mus musculus, UniProt P18654); assay: ADP-Glo kinase assay with S6 peptide at […] ATP; also thermal shift (SYPRO Orange, ~[…]°C); type: biochemical
T1 construct: gene Rps6ka3; full-length mouse RSK2 (amino acids 1–740), expressed in E. coli, phosphorylated in vitro by ERK2 and PDK1

[2] = target: full-length murine ribosomal S6 kinase 2 (RSK2) (mouse) (UniProt P18654); assay: dynamic light scattering; RSK2 at ~0.7 mg/ml, 10°C, 50 mM Tris pH 8.0, 500 mM NaCl, 5 mM 2-mercaptoethanol; dimer of monomers

T1 sequence (P18654 whole entry, the tested form may be a part): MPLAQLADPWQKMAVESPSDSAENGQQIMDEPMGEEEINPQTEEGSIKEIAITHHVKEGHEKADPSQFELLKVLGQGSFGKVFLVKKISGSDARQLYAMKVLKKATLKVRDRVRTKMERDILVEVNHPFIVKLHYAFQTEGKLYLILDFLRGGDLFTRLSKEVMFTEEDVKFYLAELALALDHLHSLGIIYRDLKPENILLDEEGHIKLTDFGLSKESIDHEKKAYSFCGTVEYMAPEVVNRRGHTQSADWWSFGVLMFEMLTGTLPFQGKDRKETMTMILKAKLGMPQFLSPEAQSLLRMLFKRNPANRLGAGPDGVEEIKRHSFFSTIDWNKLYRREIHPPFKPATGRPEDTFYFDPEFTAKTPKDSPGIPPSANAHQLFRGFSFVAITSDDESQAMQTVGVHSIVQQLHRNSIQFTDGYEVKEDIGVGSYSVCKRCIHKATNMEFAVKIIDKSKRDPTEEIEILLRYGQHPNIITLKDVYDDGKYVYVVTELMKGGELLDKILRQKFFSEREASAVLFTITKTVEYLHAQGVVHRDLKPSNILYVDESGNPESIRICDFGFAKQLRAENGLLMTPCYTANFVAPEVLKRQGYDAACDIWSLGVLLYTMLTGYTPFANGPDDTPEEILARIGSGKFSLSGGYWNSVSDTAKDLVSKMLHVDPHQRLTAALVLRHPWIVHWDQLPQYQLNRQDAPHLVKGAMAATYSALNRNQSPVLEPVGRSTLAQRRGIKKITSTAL

Molecule | IC50 [1] [µM] | stoichiometry N [2]
CC(=O)O[C@@H]1[C@@H](OC(C)=O)[C@@H](O)[C@H](Oc2c(-c3ccc(O)cc3)oc3cc(O)cc(O)c3c2=O)O[C@H]1C [SL0101] | ~8 | –
full-length murine ribosomal S6 kinase 2 (RSK2) (from UniProt P18654 1-740) (enzyme) | – | 2
